Assay results reported in patent US7138361B2, “Herbicidal heterocycles” (E. I. du Pont de Nemours and Company, priority 2000, dated 2006).

Columns and labels:
Assay type in all cases: in vivo
[1] = system: lambsquarters (Chenopodium album); assay: Test B postemergence; conditions: Rate 125 g/ha, scale 0 to 100, 0 no effect, 100 complete control
Procedure, shortened: (§1)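 Greenhouse test: chemicals are formulated in a surfactant-containing non-phytotoxic solvent and applied either preemergence to planted seeds or postemergence to plants 2 to 18 cm tall. Response is rated visually versus controls after 13 to 15 days, 0 meaning no effect and 100 complete control.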

[2] = system: blackgrass (Alopecurus myosuroides); assay: Test B postemergence
Procedure, shortened: as §1

[3] = system: pigweed (Amaranthus retroflexus); assay: Test B postemergence; conditions: Rate 125 g/ha, scale 0 to 100, 0 no effect, 100 complete control
Procedure, shortened: as §1

[4] = system: cocklebur (Xanthium strumarium); assay: Test B postemergence
Procedure, shortened: as §1

[5] = system: Surinam grass (Brachiaria decumbens); assay: Test B postemergence
Procedure, shortened: as §1

[6] = system: corn (Zea mays); assay: Test B postemergence
Procedure, shortened: as §1

[7] = system: crabgrass (Digitaria sanguinalis); assay: Test B postemergence; conditions: Rate 125 g/ha, scale 0 to 100, 0 no effect, 100 complete control
Procedure, shortened: as §1

[8] = system: wheat (Triticum aestivum); assay: Test B postemergence; conditions: Rate 125 g/ha, scale 0 to 100, 0 no effect, 100 complete control
Procedure, shortened: as §1

[9] = system: wild oat (Avena fatua); assay: Test B postemergence; conditions: Rate 125 g/ha, scale 0 to 100, 0 no effect, 100 complete control
Procedure, shortened: as §1

[10] = system: morning glory (Ipomoea hederacea); assay: Test B postemergence; conditions: Rate 125 g/ha, scale 0 to 100, 0 no effect, 100 complete control
Procedure, shortened: as §1

[11] = system: velvetleaf (Abutilon theophrasti); assay: Test B postemergence; conditions: Rate 125 g/ha, scale 0 to 100, 0 no effect, 100 complete control
Procedure, shortened: as §1

[12] = system: giant foxtail (Setaria faberii); assay: Test B postemergence; conditions: Rate 125 g/ha, scale 0 to 100, 0 no effect, 100 complete control
Procedure, shortened: as §1

[13] = system: barnyardgrass (Echinochloa crus-galli); assay: Test B postemergence
Procedure, shortened: as §1

[14] = system: Sunflower; assay: Test C preemergence; conditions: Rate 500 g/ha, visual evaluation after 12 to 14 days
[15] = system: Sunflower; assay: Test C preemergence; conditions: Rate 250 g/ha, scale 0 to 100, 0 no effect, 100 complete control
[16] = system: soybean (Glycine max); assay: Test C preemergence
Procedure, shortened: (§2)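 Test chemicals, formulated in a non-phytotoxic solvent mixture with surfactant, were applied preemergence to planted seeds or postemergence to plants 2 to 18 cm tall (1- to 4-leaf stage). After 12 to 14 days in a greenhouse, injury was visually rated against untreated controls on a 0–100 scale.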

[17] = system: cocklebur (Xanthium strumarium); assay: Test C preemergence; conditions: preemergence
Procedure, shortened: as §2

[18] = system: goosegrass (Eleusine indica); assay: Test C preemergence
Procedure, shortened: as §2

[19] = system: kochia (Kochia scoparia); assay: Test C preemergence
Procedure, shortened: as §2

[20] = system: crabgrass (Digitaria sanguinalis); assay: Test C preemergence
Procedure, shortened: as §2

[21] = system: bermudagrass (Cynodon dactylon); assay: Test C preemergence
Procedure, shortened: as §2

[22] = system: velvetleaf (Abutilon theophrasti); assay: Test C preemergence
Procedure, shortened: as §2

[23] = system: Sunflower; assay: Test C preemergence; conditions: Rate 125 g/ha; scale 0 to 100, 0 no effect, 100 complete control
[24] = Rate 125 g/ha, scale 0 to 100, 0 no effect, 100 complete control
[25] = Rate 500 g/ha, scale 0 to 100, 0 is no effect, 100 is complete control, 13 to 15 days
[26] = preemergence, Rate 62 g/ha, scale 0 to 100
[27] = preemergence, Rate 500 g/ha, visual evaluation after 12 to 14 days
[28] = preemergence, Rate 250 g/ha, scale 0 to 100, 0 no effect, 100 complete control

In the case of CCOc1cccc(N2CCC(n3ccc(C(C)(C)C)n3)C2=O)c1 (stereo not drawn) [Compound 130], the “Plant response rating, Lambsquarters” value [1] is reported as 90, the “Plant response rating, Blackgrass” value [2, 24] is reported as 0 and the “Plant response rating, Blackgrass” value [2, 25] is reported as 20. The “Plant response rating, Pigweed” value [3] was 80, the “Plant response rating, Cocklebur” value [4, 24] was 20 and the “Plant response rating, Cocklebur” value [4, 25] was 50. For the same compound, the “Plant response rating, Surinam grass” value [5, 24] was 0, the “Plant response rating, Surinam grass” value [5, 25] was 40 and the “Plant response rating, Corn” value [6, 24] was 0. For the same compound, the “Plant response rating, Corn” value [6, 25] was 0, the “Plant response rating, Crabgrass” value [7] was 0 and the “Plant response rating, Wheat” value [8] was 0. For the same compound, the “Plant response rating, Wild Oat” value [9] was 0, the “Plant response rating, Morningglory” value [10] was 70 and the “Plant response rating, Velvetleaf” value [11] was 0. The “Plant response rating, Foxtail, Giant” value [12] was 0, the “Plant response rating, Barnyardgrass” value [13, 24] was 0 and the “Plant response rating, Barnyardgrass” value [13, 25] was 90. For the same compound, the “Plant response rating (0 to 100), Sunflower” value [14] was 70, the “Plant response rating, Sunflower” value [15] was 70 and the “Plant response rating, Soybean” value [16, 24] was 30. For the same compound, the “Plant response rating, Soybean” value [16, 26] was 30, the “Plant response rating (0 to 100), Soybean” value [16, 27] was 60 and the “Plant response rating, Soybean” value [16, 28] was 40. For the same compound, the “Plant response rating, Cocklebur” value ([17]; Rate 62 g/ha, scale 0 to 100) was 0, the “Plant response rating (0 to 100), Cocklebur” value ([17]; Rate 500 g/ha, visual evaluation after 12 to 14 days) was 0 and the “Plant response rating, Cocklebur” value ([17]; Rate 250 g/ha, scale 0 to 100, 0 no effect, 100 complete control) was 0. The “Plant response rating, Goosegrass” value [18, 24] was 100, the “Plant response rating, Goosegrass” value [18, 26] was 100 and the “Plant response rating (0 to 100), Goosegrass” value [18, 27] was 100. For the same compound, the “Plant response rating, Goosegrass” value [18, 28] was 100, the “Plant response rating, Kochia” value [19, 24] was 100 and the “Plant response rating, Kochia” value [19, 26] was 100. The “Plant response rating (0 to 100), Kochia” value [19, 27] was 100, the “Plant response rating, Kochia” value [19, 28] was 100 and the “Plant response rating, Crabgrass” value [20, 24] was 100. The “Plant response rating, Crabgrass” value [20, 26] was 100, the “Plant response rating (0 to 100), Crabgrass” value [20, 27] was 100 and the “Plant response rating, Crabgrass” value [20, 28] was 100. For the same compound, the “Plant response rating, Bermudagrass” value [21, 24] was 100, the “Plant response rating, Bermudagrass” value [21, 26] was 100 and the “Plant response rating (0 to 100 where 0 is no effect and 100 is complete control), Bermudagrass” value [21, 27] was 100. For the same compound, the “Plant response rating, Bermudagrass” value [21, 28] was 100, the “Plant response rating, Velvetleaf” value [22, 24] was 60 and the “Plant response rating, Velvetleaf” value [22, 26] was 60. The “Plant response rating (0 to 100), Velvetleaf” value [22, 27] was 60, the “Plant response rating, Velvetleaf” value [22, 28] was 60 and the “Plant response rating, Sunflower” value [23] was 60.
